Data: article PMC2837273 (Drug metabolism and disposition: the biological fate of …, 2008)
pIC50: −log10 of the molar value. Entries after “also recorded” stand apart in the source; their conditions may differ. Read-outs that look alike come from different tables or passages of the source.

How the values were obtained:
Abcg2 [1] = assay: GF120918 "chemical knockout" of nitrofurantoin transfer into rat milk; type: in vivo, Sprague Dawley rat; conditions: GF120918 10 mg/kg treated group vs control; lactating rats
rat Abcg2 [2] = biological target: T1, rat Abcg2 (Rattus norvegicus, UniProt Q80W57); type: cell-based
T1 sequence (Q80W57 1-657): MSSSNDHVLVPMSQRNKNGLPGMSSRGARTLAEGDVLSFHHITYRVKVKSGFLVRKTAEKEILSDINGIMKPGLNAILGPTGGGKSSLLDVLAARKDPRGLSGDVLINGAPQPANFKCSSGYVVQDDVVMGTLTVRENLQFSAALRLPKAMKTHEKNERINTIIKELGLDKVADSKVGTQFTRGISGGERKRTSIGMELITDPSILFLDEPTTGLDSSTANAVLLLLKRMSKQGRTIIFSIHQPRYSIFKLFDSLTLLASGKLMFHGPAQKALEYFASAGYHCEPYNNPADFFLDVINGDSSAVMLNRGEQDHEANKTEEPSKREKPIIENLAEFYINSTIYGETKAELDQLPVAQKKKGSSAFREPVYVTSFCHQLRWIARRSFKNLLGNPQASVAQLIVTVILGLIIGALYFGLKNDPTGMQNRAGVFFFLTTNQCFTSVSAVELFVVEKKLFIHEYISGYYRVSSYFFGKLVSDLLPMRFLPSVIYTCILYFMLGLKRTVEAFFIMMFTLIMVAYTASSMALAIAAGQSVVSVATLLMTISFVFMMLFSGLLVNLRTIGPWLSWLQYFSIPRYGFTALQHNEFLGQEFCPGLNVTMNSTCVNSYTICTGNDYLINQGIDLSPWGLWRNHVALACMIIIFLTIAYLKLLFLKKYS

rat Abcg2 [3] = biological target: T1, rat Abcg2; assay: Hoechst 33342 accumulation in MDCKII-rAbcg2 cells; type: cell-based; conditions: 1 μM GF120918, 10μM Hoechst 33342
human ABCG2 = conditions: read-out: IC50 on efflux or accumulation; cell lines transfected with human ABCG2; ref Ahmed-Belkacem et al., 2005; Pan et al., 2007; cited from earlier work
Abcg2 [4] = conditions: wild-type and P-gp deficient mice; ref Cisternino et al., 2004; cited from earlier work
Bcrp1 = conditions: ref Merino et al., 2005, cited from earlier work
murine Bcrp1 = conditions: polarized cell lines; ref Merino et al., 2005; cited from earlier work
human BCRP = conditions: polarized cell lines; ref Merino et al., 2005; cited from earlier work
[5] = MDCKII-rat Abcg2 vs MDCKII-empty cells, 10μM nitrofurantoin

COc1cc2c(cc1OC)CN(CCc1ccc(NC(=O)c3cccc4c(=O)c5cccc(OC)c5[nH]c34)cc1)CC2 [GF120918, N-(4-[2-(1,2,3,4-tetrahydro-6,7-dimethoxy-2-isoquinolinyl)ethyl]-phenyl)-9,10-dihydro-5-methoxy-9-oxo-4-acridine carboxamide]
reduction in the M/S of nitrofurantoin (Abcg2 [1]): 93% | effect on nitrofurantoin transport/efflux by rat Abcg2 (rat Abcg2 [2]; 1 μM GF120918, MDCKII-rAbcg2 cells): largely reversed; also recorded: effectively inhibit | effect on Hoechst 33342 efflux phenotype (reduced accumulation) (rat Abcg2 [3]): reversed; also recorded: effectively inhibit | pIC50 (human ABCG2): ~6.52

O=C1c2c(O)ccc(O)c2C(=O)c2c(NCCNCCO)ccc(NCCNCCO)c21 [mitoxantrone]
accumulation in the presence of GF120918 (Abcg2 [4]): significantly increased

O=C1CN(/N=C/c2ccc([N+](=O)[O-])o2)C(=O)N1 [nitrofurantoin, Nitrofurantoin]
decrease in basolateral transport (rat Abcg2 [2]; [5]): 55% | increase in apical directed transport (rat Abcg2 [2]; [5]): 7.5 fold | area under the concentration time curve, Bcrp1 knockout vs wild-type mice (Bcrp1; intravenous administration): 2 fold | area under the concentration time curve, Bcrp1 knockout vs wild-type mice (Bcrp1; oral administration): 4 fold | transport by murine Bcrp1 (murine Bcrp1): efficiently transported | transport by human BCRP (human BCRP): efficiently transported
